Experimental data from patent US4196217A, “Hydroxylated amines with bacteriostatic activity” (priority 1978, dated 1980).
Where “and” joins values, the source holds several entries; their conditions need not be identical. Equal entries are not always repeated. Where two headings read alike, the source gives them in different places.

What was measured:
Pseudomonas aeruginosa [1] = experiment: bacteriostatic activity (MIC), Pseudomonas aeruginosa; type: cell-based; conditions: for MIC: Pseudomonas aeruginosa, 48 h
Procedure: The medium containing the solution to be tested is inoculated in the form of three single striae with a 10^-5 times dilution of a bacterial culture aged 16 to 18 hours grown in salted peptone broth at a temperature of 37° C.
(§1) After inoculation, the media are stored at 37° C. for 48 hours, after which the bacterial growth is inspected. The MIC (minimum inhibiting concentrations) are expressed in micrograms of pure product per cubic centimeter of gelose medium required for inhibiting the culture (μg/cc). The control substance used is benzalconium chloride.
Tests were also carried out to determine the bacteriostatic activity of other compounds according to the invention by the method described above and in comparison with known substances, in particular with benzalconium chloride (compound T in the Tables).

Serratia = experiment: bacteriostatic activity (MIC), Serratia; type: cell-based; conditions: Serratia, 48 h, Table I, 37° C., read-out: MIC
Procedure: as §1, with “The medium containing the solution to be tested is inoculated in the form of three single striae with a 10^-5 times dilution of a bacterial culture aged 16 to 18 hours grown in salted peptone broth at a temperature of 37° C. After” for “After”

Enterbacter cloacae = experiment: bacteriostatic activity (MIC), Enterbacter cloacae; type: cell-based; conditions: 48 h, Table I, 37° C., read-out: MIC
Procedure: as §1, with “The medium containing the solution to be tested is inoculated in the form of three single striae with a 10^-5 times dilution of a bacterial culture aged 16 to 18 hours grown in salted peptone broth at a temperature of 37° C. After” for “After”

Escherichia coli = experiment: bactericidal activity, Escherichia coli; type: cell-based; conditions: Table II, 2 hours contact, laboratory temperature, read-out: MIC (bactericidal activity)
Procedure: (§2) Bactericidal activity is determined by the following methods: A titrate suspension of bacteria is brought into contact over a period of 2 hours at the temperature of the laboratory with increasing dilutions of the test product. The number of bacteria still alive are counted after passage through a filtering membrane.

Pseudomonas aeruginosa [2] = experiment: bactericidal activity, Pseudomonas aeruginosa; type: cell-based; conditions: Table II, 2 hours contact, laboratory temperature, read-out: MIC (bactericidal activity)
Procedure: as §2

Bacillus pyocyaneus = experiment: MIC study in a solid medium on 35 strains of Bacillus pyocyaneus; type: cell-based; conditions: Pseudomonas aeruginosa, majority of 35 strains, read-out: minimum inhibiting concentration
[3] = test system: spores of B. subtilis var. Niger; experiment: sporostatic activity (b), porous membrane with rinses; type: cell-based
Description: (b) A porous membrane 0.45μ thick is placed aseptically in a sterile filter support, covered with 10 cc of sterile distilled water containing 1 cc of mother solution of the product, followed by the addition of 1 cc of a suspension of spores of B. subtilis var. Niger containing approximately 40 spores. These liquids are drawn through the membrane, after which the membrane is transferred aseptically to a culture medium and placed in an oven. The operation is recommenced using up to 5 rinses of the membrane per 10 cc of sterile distilled water. The number of colonies developing is then determined.

spores = experiment: sporocidal activity; type: cell-based; conditions: especially above 35° C. and at a pH around 7
[4] = acute toxicity, intragastric, rats; conditions: rat, in vivo, po, both after 48 hours and after 14 days
Procedure: The LD50 was calculated by the graphic method of J. T. Lichtfield and F. Wilcoxon (J. Pharm. Exp. Ther. 1949, 96: 99-[…]).

in vivo = conditions: mouse, mice, intravenous, both after 3 minutes and after 14 days
Description: Acute toxicity was again determined in male mice by intravenous administration.

CCCCCCCCCCOCC(O)CN.Cl (centres unmarked) [Compound 1, 3-decyloxy-2-hydroxy-1-aminopropane hydrochloride] gave an MIC (Pseudomonas aeruginosa [1]; Table I, with 20% of serum, 37° C., 48 hours, read-out: MIC) of 150 µg/mL, an MIC (Pseudomonas aeruginosa [1]; Table I, without serum, 37° C., 48 hours, read-out: MIC) of 40 µg/mL and an MIC (Pseudomonas aeruginosa [1]; Table VI, bacteriostase containing 20% of serum, read-out: M.I.C.) of 250 µg/mL. For the same compound, the M.I.C. (Pseudomonas aeruginosa [1]; Table VI, bacteriostase containing 20% of serum, hydrochloride) was 200 μg/cc and 400 μg/cc and 350 μg/cc, the MIC (Serratia; with 20% of serum) was 75 µg/mL and the MIC (Serratia; without serum) was 20 µg/mL. The MIC (Enterbacter cloacae; with 20% of serum) was 80 µg/mL, the MIC (Enterbacter cloacae; without serum) was 30 µg/mL and the MBC (Escherichia coli) was 50 µg/mL. The MBC (Pseudomonas aeruginosa [2]) was 50 µg/mL, the MIC (Bacillus pyocyaneus) was 62.5 µg/mL and the “number of colonies (No = 37)” value ([3]; 0 rinses of the membrane) was 3. For the same compound, the “number of colonies (No = 37)” value ([3]; 1 rinse of the membrane) was 4, the “number of colonies (No = 37)” value ([3]; 2 rinses of the membrane) was 35 and the “number of colonies (No = 37)” value ([3]; 3 rinses of the membrane) was 38. The “number of colonies (No = 37)” value ([3]; 4 rinses of the membrane) was 48, the “number of colonies (No = 37)” value ([3]; 5 rinses of the membrane) was 55 and the sporocidal activity (spores) was “positive”. For the same compound, the LD50 [4] was 1300 mg/kg and the LD50 (in vivo) was 54.5 mg/kg.
